Where two headings read alike, the source gives them in different places.
Assays:
[1] = Pharmacokinetic study in ICR mice (oral gavage and intravenous, plasma LC-MS/MS); type: in vivo; details: for Vd / AUC(0-t) / Cmax / MRT last / clearance / half-life / AUC(0-inf) / Tmax / bioavailability / concentration at 8 h: mouse, plasma; for Vd: iv, 10 mg/kg; for AUC(0-inf): read-out: AUCINF_obs; for bioavailability: read-out: Bioavailability (F); for concentration at 8 h: read-out: Clast
Experimental: Each group consisted of 12 animals. The dosing vehicle was 10% DMSO + 10% polyoxyethylene castor oil + 80% physiological saline solution. The oral gavage group was fasted for approximately 12 hours prior to dosing and allowed food 4 hours after administration. Water was not restricted during the experiment. Approximately 0.2 mL of blood was collected from the orbital sinus at the following time points: pre-dose and 5, 15, 30 minutes, 1, 2, 4, 6, 8, and 24 hours post-dose. Blood was collected into EP tubes containing EDTA-K2 as anticoagulant and placed on ice. Plasma was separated by centrifugation at 3500 rpm for 5 minutes at 4°C within 1 hour of blood collection. Plasma samples were stored at -20°C until analysis. […] Pharmacokinetic parameters were calculated using WinNonlin software.

CDK7/CycH/MAT1 = CDK7/CycH/MAT1 (Homo sapiens, UniProt P50613); test: Inhibition of CDK7/CycH/MAT1 kinase activity (ADP-Glo); type: biochemical; details: IC50, ATP 30 µM, substrate 0.1 µM, 60 minutes at 25°C
Experimental: The CDK7/CycH/MAT1 protein was thawed on ice, and the remaining reagents were equilibrated to room temperature. The CDK7/CycH/MAT1 protein and ATP/substrate were diluted to the corresponding concentrations using enzyme reaction buffer (50 mM Hepes, 10 mM MgCl2, 0.01% Brij35, 1 mM EGTA, 2 mM DTT). The test compounds were added to a 384-well white low-volume enzyme assay plate at 20 nL per well, followed by the addition of the prepared CDK7/CycH/MAT1 protein (2 µL/well), mixed well, and incubated at 25°C for 10 minutes. The reaction was initiated by adding ATP/substrate and allowed to proceed at 25°C for 60 minutes. The final concentrations of each component in the enzyme reaction system were as follows: CDK7/CycH/MAT1 protein, 3.5 ng/µL; ATP, 30 µM; substrate, 0.1 µM. The concentrations of the test compounds ranged from high to low as follows: 5000, 1667, 556, 185, 62, 21, 7, 2, 1, and 0.3 nM. After completion of the enzymatic reaction, 4 µL of ADP-Glo Reagent was added to each well and incubated at 25°C for 40 minutes. Subsequently, 8 µL of Kinase Detection Reagent was added to each well and incubated at25°C for another 40 minutes. Chemiluminescence signals were recorded using a microplate reader, and the data were used to generate dose-response curves and calculate IC50 values.

HCT-116 = test: Anti-proliferative activity on tumor cells (Cell Titer-Glo), HCT-116; type: cell-based; details: HCT-116, 3 days
Experimental: (§1) Tumor cell lines including HCT-116, MDA-MB-468, Jurkat, HCC70, and MDA-MB-436 were cultured in their respective growth media. Cells were seeded into 384-well plates at densities of 600, 300, 800, 800, and 1000 cells/well (in 18 µL/well), respectively, and incubated overnight at 37°C under 5% CO2 (MDA-MB-468 cells were incubated overnight at 37°C under 100% air). Test sample stock solutions were prepared in DMSO at 10 mM and serially diluted 1:3 across 10 concentrations in 1% DMSO to prepare 10X intermediate dilution plates. Then, 2 µL/well of the 1oX intermediate dilution was added to the cell plates to achieve the final assay concentrations: 10000, 3333, 1111, 370, 123, 41, 14, 4.6, and 1.5 nM. HCT-116, Jurkat, and HCC70 cell plates were incubated for 3, 7, and 7 days at 37°C with 5% CO2, respectively (MDA-MB-468 cell plates were incubated for 7 days at 37°C with 100% air). After treatment, Cell Titer-Glo reagent was removed from -20°C storage and equilibrated to room temperature. Then, 20 µL/well of Cell Titer-Glo reagent was added to each well and incubated for 10 minutes. After the 10-minute incubation, luminescence was measured using a microplate reader. Data were analyzed using Excel and the IC50 values were calculated using GraphPad Prism 7.0 software.

MDA-MB-468 = test: Anti-proliferative activity on tumor cells (Cell Titer-Glo), MDA-MB-468; type: cell-based; details: MDA-MB-468, 7 days, 100% air
Experimental: as §1

Jurkat = test: Anti-proliferative activity on tumor cells (Cell Titer-Glo), Jurkat; type: cell-based; details: 7 days
Experimental: as §1

HCC70 = test: Anti-proliferative activity on tumor cells (Cell Titer-Glo), HCC70; type: cell-based; details: HCC70, 7 days
Experimental: as §1

[2] = male ICR mice, iv. 10mg/kg, read-out: Vss
[3] = male ICR mice, iv. 10mg/kg, read-out: Vz

CDK7/CycH/MAT1, sequence (P50613 whole entry, species assumed): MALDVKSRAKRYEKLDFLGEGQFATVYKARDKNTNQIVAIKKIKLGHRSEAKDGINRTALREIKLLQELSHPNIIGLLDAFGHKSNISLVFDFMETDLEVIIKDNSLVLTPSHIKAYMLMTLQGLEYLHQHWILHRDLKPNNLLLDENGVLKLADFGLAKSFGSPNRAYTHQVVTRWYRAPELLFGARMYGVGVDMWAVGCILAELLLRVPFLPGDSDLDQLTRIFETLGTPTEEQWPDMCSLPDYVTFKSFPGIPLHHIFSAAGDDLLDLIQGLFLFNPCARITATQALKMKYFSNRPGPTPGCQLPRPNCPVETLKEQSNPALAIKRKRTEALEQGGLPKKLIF
CDK7/CycH/MAT1, sequence (P51946 whole entry partner, species assumed): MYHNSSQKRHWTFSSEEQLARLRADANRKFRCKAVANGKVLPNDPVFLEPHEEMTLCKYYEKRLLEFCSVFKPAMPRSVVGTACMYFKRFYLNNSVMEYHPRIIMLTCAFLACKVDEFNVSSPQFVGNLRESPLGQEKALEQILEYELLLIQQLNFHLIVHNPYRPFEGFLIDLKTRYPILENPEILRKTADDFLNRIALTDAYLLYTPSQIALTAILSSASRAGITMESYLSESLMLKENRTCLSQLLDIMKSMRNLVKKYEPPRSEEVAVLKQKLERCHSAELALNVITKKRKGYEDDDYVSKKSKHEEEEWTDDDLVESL
CDK7/CycH/MAT1, sequence (P51948 whole entry partner, species assumed): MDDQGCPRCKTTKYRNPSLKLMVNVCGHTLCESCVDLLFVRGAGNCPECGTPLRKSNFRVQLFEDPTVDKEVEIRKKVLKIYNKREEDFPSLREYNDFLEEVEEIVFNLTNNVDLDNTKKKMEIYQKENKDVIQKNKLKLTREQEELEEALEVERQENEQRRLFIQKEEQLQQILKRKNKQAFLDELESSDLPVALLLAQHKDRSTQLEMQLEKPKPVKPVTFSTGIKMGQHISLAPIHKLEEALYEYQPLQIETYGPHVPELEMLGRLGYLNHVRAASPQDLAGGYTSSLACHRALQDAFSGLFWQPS

SMILES	Tlast ([1]; male ICR mice, iv. 10mg/kg) [H]	Tlast ([1]; male ICR mice, po. 10mg/kg) [h]	AUC(0-t) ([1]; male ICR mice, iv. 10mg/kg) [ng·h/mL]	Cmax ([1]; male ICR mice, iv. 10mg/kg) [ng/mL]	MRT last ([1]; male ICR mice, iv. 10mg/kg) [h]	clearance ([1]; male ICR mice, iv. 10mg/kg) [mL/min/kg]	half-life ([1]; male ICR mice, iv. 10mg/kg) [h]	AUC(0-inf) ([1]; male ICR mice, iv. 10mg/kg) [ng·h/mL]	AUC(0-t) ([1]; male ICR mice, po. 10mg/kg) [ng·h/mL]	Cmax ([1]; male ICR mice, po. 10mg/kg) [ng/mL]	MRT last ([1]; male ICR mice, po. 10mg/kg) [h]	Tmax ([1]; male ICR mice, po. 10mg/kg) [h]	half-life ([1]; male ICR mice, po. 10mg/kg) [h]	AUC(0-inf) ([1]; male ICR mice, po. 10mg/kg) [ng·h/mL]	bioavailability ([1]; male ICR mice, po. 10mg/kg) [%]	IC50 (CDK7/CycH/MAT1) [nM]	IC30 (HCT-116) [nM]	IC30 (MDA-MB-468) [nM]	IC30 (Jurkat) [nM]	IC30 (HCC70) [nM]	also measured
C=CCNc1cc(NC[C@H]2CCNC[C@@H]2O)nc2c(C(C)C)cnn12 [Compound 41]	8	8	2960	4360	1.1	55	2.3	3020	445	150	2.5	2	1.5	462	15	6.3					Clast ([1]; male ICR mice, iv. 10mg/kg): 19 ng/mL; Vss ([1]; male ICR mice, iv. 10mg/kg): higher steady-state apparent volume of distribution; Bioavailability (F) ([1]; male ICR mice, po. 10mg/kg): better oral bioavailability; Clast ([1]; male ICR mice, po. 10mg/kg): 8 ng/mL; Vd [1, 2]: 4.22 L/kg; Vd [1, 3]: 10.9 L/kg
N#Cc1cnn2c(NCc3ccccc3)cc(NC[C@H]3CCNC[C@@H]3O)nc12 [Compound 22]																4.31	3453.0	2910.0	4087.0		
CC(C)c1cnn2c(NCC3CC3)cc(NC[C@H]3CCNC[C@@H]3O)nc12 [Compound 45]																21.2	429.4	851.8	1126	596.4	
[2H]C([2H])(Nc1cc(NC[C@H]2CCNC[C@@H]2O)nc2c(C(C)C)cnn12)c1ccccc1 [Compound 8]																	231.7	350.4	329.4		
CC(C)c1cnn2c(NCc3ccccc3)cc(NC[C@H]3CCNC[C@@H]3O)nc12 [CT7001, reference compound]	8	8	8120	17400	1.3	20	1.5	8400	541	99	3.6	2	2.5	653	7.8		463.7	602.2	473.3	518.9	Vz ([1]; male ICR mice, po. 10mg/kg): 55.15 L/kg; Vd ([1]; male, ICR, iv. 10mg/kg, read-out: Vss): 1.91 L/kg; Vd ([1]; male, ICR, iv. 10mg/kg, read-out: Vz): 2.62 L/kg; concentration at 8 h ([1]; male ICR mice, iv. 10mg/kg): 126 ng/mL; concentration at 8 h ([1]; male ICR mice, po. 10mg/kg): 31 ng/mL
CC#CCNc1cc(NC[C@H]2CCNC[C@@H]2O)nc2c(C(C)C)cnn12 [Compound 38]																18.9	391.3	765.9	858.8	968.8	
C#CCNc1cc(NC[C@H]2CCNC[C@@H]2O)nc2c(C(C)C)cnn12 [Compound 33]	24	6	1510	990	2.4	104	10	1600	65	26	2.4	0.5	2.9	88	5.5	2.7	788.3	1101	200.8	501.9	Clast ([1]; male ICR mice, iv. 10mg/kg): 6 ng/mL; T1/2 ([1]; male ICR mice, iv. 10mg/kg): longer half-life; Vss ([1]; male ICR mice, iv. 10mg/kg): higher steady-state apparent volume of distribution; Clast ([1]; male ICR mice, po. 10mg/kg): 5 ng/mL; Vd [1, 2]: 27.8 L/kg; Vd [1, 3]: 90 L/kg

From patent EP4671245A1, “HETEROAROMATIC RING COMPOUND SERVING AS CDK7 KINASE INHIBITOR, PREPARATION THEREOF, AND USE THEREOF” (Jiangsu Chia Tai Fenghai Pharmaceutical Co., Ltd., priority 2023, dated 2024)
